Where a SMILES comes first, the peptide text is derived from it. Bridges are numbered along the chain shown (N, C = ends). [ ]: non-standard residue; d: D form. The star is where a group is joined. hPhe(3-Cl-4-CF3) = N[C@@H](CCc1ccc(C(F)(F)F)c(Cl)c1)C(=O)O; NPrPhe(4-CF3) = CCCN[C@@H](Cc1ccc(C(F)(F)F)cc1)C(=O)O; NMeGly(cPent) = CN[C@H](C(=O)O)C1CCCC1; NMeD = CN[C@@H](CC(=O)O)C(=O)O; NMeL = CN[C@@H](CC(C)C)C(=O)O; Morpholide = C1CN(*)CCO1; Ac4c = NC1(C(=O)O)CCC1; NEtG = CCNCC(=O)O; Sar = CNCC(=O)O
Assays:
[1] = system: human lung cancer strain NCI-H441; test: cells; settings: NCI-H441, 96 h, read-out: NCI-H441 IC50 (nM), NCI-H441 cell proliferation, 4 days, CellTiter-Glo;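 also: cell proliferation inhibition after four days measured by CellTiter-Glo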
[2] = biological target: GDP-bound HRAS wild-type protein (Homo sapiens, UniProt P01112); test: Binding to HRAS by surface plasmon resonance (SPR), Single Cycle Kinetics; settings: ratio of KD for GDP-bound HRAS wild-type protein to KD for KRAS, SPR
[3] = biological target: GDP-bound KRAS wild-type protein (Homo sapiens, UniProt P01116); test: Binding to KRAS by surface plasmon resonance (SPR), Single Cycle Kinetics; settings: SPR, Single Cycle Kinetics, GDP-bound KRAS wild-type protein; read-out: KRAS KD
[4] = biological target: GDP-bound NRAS wild-type protein (Homo sapiens, UniProt P01111); test: Binding to NRAS by surface plasmon resonance (SPR), Single Cycle Kinetics; settings: ratio of KD for GDP-bound NRAS wild-type protein to KD for KRAS, SPR
GDP-bound NRAS wild-type protein, sequence (P01111 whole entry): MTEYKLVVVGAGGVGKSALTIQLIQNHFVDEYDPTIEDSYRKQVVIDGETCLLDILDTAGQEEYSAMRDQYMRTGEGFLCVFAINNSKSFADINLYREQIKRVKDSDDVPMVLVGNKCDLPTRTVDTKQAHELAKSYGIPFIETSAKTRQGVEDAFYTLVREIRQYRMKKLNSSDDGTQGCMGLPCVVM

GDP-bound HRAS wild-type protein, sequence (P01112 whole entry): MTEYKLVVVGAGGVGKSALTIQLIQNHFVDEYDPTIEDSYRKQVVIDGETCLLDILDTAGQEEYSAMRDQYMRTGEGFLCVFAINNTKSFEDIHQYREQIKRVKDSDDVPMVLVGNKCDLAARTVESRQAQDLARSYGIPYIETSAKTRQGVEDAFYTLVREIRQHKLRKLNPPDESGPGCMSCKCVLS
GDP-bound KRAS wild-type protein, sequence (P01116 whole entry): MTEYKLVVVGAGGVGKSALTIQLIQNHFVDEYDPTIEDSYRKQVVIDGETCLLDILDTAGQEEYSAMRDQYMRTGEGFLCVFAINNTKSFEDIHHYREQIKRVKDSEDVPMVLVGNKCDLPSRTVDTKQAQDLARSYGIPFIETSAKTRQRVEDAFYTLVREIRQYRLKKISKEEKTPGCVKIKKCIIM

IC50 [1] [nM]	Kd [3] [nM]	SMILES	HRAS/KRAS (KD ratio) [2]	NRAS/KRAS (KD ratio) [4]
19.7	0.19	CC[C@H](C)[C@@H]1NC(=O)[C@H](C2CCC2)N(C)C(=O)C[C@@H](C(=O)N(C)CC)N(C)C(=O)[C@H](C2CCCC2)N(C)C(=O)C2(CC(C)(C)C2)NC(=O)[C@@H]2C[C@H](C)CN2C(=O)[C@H](CCc2ccc(C(F)(F)F)c(OC)c2)NC(=O)CN(C)C(=O)[C@H](Cc2ccc(C(F)(F)F)cc2)N2CC/C=C\C[C@@H](C2=O)N(C)C(=O)CN(C)C1=O [PP2009]	A (a compound having 10 or more and less than 20 is denoted as A)	A (a compound having 10 or more and less than 20 is denoted as A)
5.2	0.096	CC[C@H](C)[C@@H]1NC(=O)[C@H](CC(C)C)N(C)C(=O)C[C@@H](C(=O)N(C)C)N(C)C(=O)[C@H](C2CCCC2)N(C)C(=O)C2(CCC2)NC(=O)[C@@H]2C[C@@H](C)CN2C(=O)[C@H](CCc2ccc(C(F)(F)F)c(Cl)c2)NC(=O)CN(C)C(=O)[C@H](Cc2ccc(C)cc2)N2CC/C=C\C[C@@H](C2=O)N(C)C(=O)CN(C)C1=O [PP1854]	A (a compound having 10 or more and less than 20 is denoted as A)	A (a compound having 10 or more and less than 20 is denoted as A)
12.5	0.087	CCO[C@@H]1C[C@H]2C(=O)NC3(CC(C)(C)C3)C(=O)N(C)[C@@H](C3CCCC3)C(=O)N(C)[C@H](C(=O)N(C)C)CC(=O)N(C)[C@@H](C(C)C)C(=O)N[C@@H]([C@@H](C)CC)C(=O)N(C)CC(=O)N(C)[C@H]3C/C=C\CCN(C3=O)[C@@H](Cc3ccc(C(F)(F)F)cc3)C(=O)N(C)CC(=O)N[C@@H](CCc3ccc(C(F)(F)F)c(OC)c3)C(=O)N2C1 [PP1979]	A (a compound having 10 or more and less than 20 is denoted as A)	AA (a compound having 20 or more is denoted as AA)
32.5	1.9	CCCN1C(=O)CN(C)C(=O)CN(C)C(=O)[C@H]([C@@H](C)CC)NC(=O)[C@H](CC(C)C)N(C)C(=O)C[C@@H](C(=O)N2CCOCC2)N(C)C(=O)[C@H](C2CCCC2)N(C)C(=O)C2(CCC2)NC(=O)[C@@H]2CCCN2C(=O)[C@H](CCc2ccc(C(F)(F)F)c(Cl)c2)NC(=O)CN(CC)C(=O)[C@@H]1Cc1ccc(C(F)(F)F)cc1 [PP1950] ([NMeL]I[Sar][Sar][NPrPhe(4-CF3)][NEtG][hPhe(3-Cl-4-CF3)]P[Ac4c][NMeGly(cPent)][NMeD]-Morpholide; lactam N-11)	C (A compound having a KD ratio of 0.1 or more and less than 3 is denoted as C)	B (a compound having 3 or more and less than 10 is denoted as B)
68.5	0.72	CCC[C@H]1C(=O)N[C@@H]([C@@H](C)CC)C(=O)N(C)CC(=O)N(C)[C@H]2C/C=C\CCN(C2=O)[C@@H](Cc2ccc(C(F)(F)F)cc2)C(=O)N(C)CC(=O)N[C@@H](CCc2cc(F)c(C(F)(F)F)c(F)c2)C(=O)N(C)[C@@H](C)C(=O)NC2(CC(C)(C)C2)C(=O)N(C)[C@@H](C2CCCC2)C(=O)N(C)[C@H](C(=O)N(C)C)CC(=O)N1C [PP1934]	A (a compound having 10 or more and less than 20 is denoted as A)	A (a compound having 10 or more and less than 20 is denoted as A)
11.6	0.097	CCCN(C)C(=O)[C@@H]1CC(=O)N(C)[C@@H](COCC)C(=O)N[C@@H]([C@@H](C)CC)C(=O)N(C)CC(=O)N(C)[C@H]2C/C=C\CCN(C2=O)[C@@H](Cc2ccc(C(F)(F)F)cc2)C(=O)N(C)CC(=O)N[C@@H](CCc2ccc(C(F)(F)F)c(OC)c2)C(=O)N2C[C@H](OCC)C[C@H]2C(=O)NC2(CC(C)(C)C2)C(=O)N(C)[C@@H](C2CCCC2)C(=O)N1C [PP2012]	A (a compound having 10 or more and less than 20 is denoted as A)	AA (a compound having 20 or more is denoted as AA)

The remaining lines, values behind:

SMILES	IC50 [1] [nM]	Kd [3] [nM]	HRAS/KRAS (KD ratio) [2]	NRAS/KRAS (KD ratio) [4]
CC[C@H](C)[C@@H]1NC(=O)[C@H](CC2CC2)N(C)C(=O)C[C@@H](C(=O)N(C)C)N(C)C(=O)[C@H](C2CCCC2)N(C)C(=O)C2(CC(C)(C)C2)NC(=O)[C@@H]2C[C@H](C)CN2C(=O)[C@H](CCc2cc(F)c(C(F)(F)F)c(F)c2)NC(=O)CN(C)C(=O)[C@H](Cc2ccc(C(F)(F)F)cc2)N2CC/C=C\C[C@@H](C2=O)N(C)C(=O)CN(C)C1=O [PP1660]	4.3	0.11	A (a compound having 10 or more and less than 20 is denoted as A)	A (a compound having 10 or more and less than 20 is denoted as A)
CCC[C@H]1C(=O)N[C@@H]([C@@H](C)CC)C(=O)N(C)CC(=O)N(C)[C@H]2C/C=C\CCN(C2=O)[C@@H](Cc2ccc(C(F)(F)F)cc2)C(=O)N(C)CC(=O)N[C@@H](CCc2cc(F)c(C(F)(F)F)c(F)c2)C(=O)N2C[C@H](F)C[C@H]2C(=O)NC2(CC(C)(C)C2)C(=O)N(C)[C@@H](C2CCCC2)C(=O)N(C)[C@H](C(=O)N(C)C)CC(=O)N1C [PP1689]	1.4	0.023	B (a compound having 3 or more and less than 10 is denoted as B)	A (a compound having 10 or more and less than 20 is denoted as A)
CCO[C@@H]1C[C@H]2C(=O)NC3(CC(C)(C)C3)C(=O)N(C)[C@@H](C(CC)CC)C(=O)N(C)[C@H](CC)CC(=O)N(C)[C@@H](CC3CC3)C(=O)N[C@@H]([C@@H](C)CC)C(=O)N(C)CC(=O)N(C)[C@H]3C/C=C\CCN(C3=O)[C@@H](Cc3ccc(C(F)(F)F)cc3)C(=O)N(C)CC(=O)N[C@@H](CCc3cc(F)c(C(F)(F)F)c(F)c3)C(=O)N2C1 [PP1628]	150	2.5	A (a compound having 10 or more and less than 20 is denoted as A)	A (a compound having 10 or more and less than 20 is denoted as A)
CC[C@H](C)[C@@H]1NC(=O)[C@H](CC2CCC2)N(C)C(=O)C[C@@H](C(=O)N(C)C)N(C)C(=O)[C@H](C2CCCC2)N(C)C(=O)C2(CCC2)N(C)C(=O)[C@@H]2CCCN2C(=O)[C@H](CCc2cc(F)c(C(F)(F)F)c(F)c2)NC(=O)CN(C)C(=O)[C@H](Cc2ccc(C)cc2)N2CC/C=C\C[C@@H](C2=O)N(C)C(=O)CN(C)C1=O [PP1802]	5.8	0.082	B (a compound having 3 or more and less than 10 is denoted as B)	A (a compound having 10 or more and less than 20 is denoted as A)
CC[C@H](C)[C@@H]1NC(=O)[C@H](CC)N(C)C(=O)C[C@@H](C(=O)N(CC)CC)N(C)C(=O)[C@H](C2CCCC2)N(C)C(=O)C2(CC(C)(C)C2)NC(=O)[C@@H]2C[C@@H](C)CN2C(=O)[C@H](CCc2ccc(C(F)(F)F)c(OC)c2)NC(=O)CN(C)C(=O)[C@H](Cc2ccc(C)cc2)N2CC/C=C\C[C@@H](C2=O)N(C)C(=O)CN(C)C1=O [PP1841]	24.3	0.38	A (a compound having 10 or more and less than 20 is denoted as A)	AA (a compound having 20 or more is denoted as AA)
CC[C@H](C)[C@@H]1NC(=O)[C@H](CC)N(C)C(=O)C[C@@H](C(=O)N(C)C)N(C)C(=O)[C@H](C2CCCC2)N(C)C(=O)C2(CCC2)N(C)C(=O)[C@@H]2CCCN2C(=O)[C@H](CCc2cc(F)c(C(F)(F)F)c(F)c2)NC(=O)CN(C)C(=O)[C@H](Cc2ccc(C)cc2)N2CC/C=C\C[C@@H](C2=O)N(C)C(=O)[C@@H]2CCCN2C1=O [PP1786]	11.4	0.14	B (a compound having 3 or more and less than 10 is denoted as B)	A (a compound having 10 or more and less than 20 is denoted as A)
CCO[C@@H]1C[C@H]2C(=O)N(C)C3(CCC3)C(=O)N(C)[C@@H](C3CCCC3)C(=O)N(C)[C@H](C(=O)N(C)C)CC(=O)N(C)[C@@H](CC3CC3)C(=O)N[C@@H]([C@@H](C)CC)C(=O)N3CCC[C@H]3C(=O)N(C)[C@H]3C/C=C\CCN(C3=O)[C@@H](Cc3ccc(C)cc3)C(=O)N(C)CC(=O)N[C@@H](CCc3cc(F)c(C(F)(F)F)c(F)c3)C(=O)N2C1 [PP1797]	5.1	0.1	A (a compound having 10 or more and less than 20 is denoted as A)	A (a compound having 10 or more and less than 20 is denoted as A)
C#CC[C@H]1C(=O)N[C@@H]([C@@H](C)CC)C(=O)N(C)CC(=O)N(C)[C@H]2C/C=C\CCN(C2=O)[C@@H](Cc2ccc(C(F)(F)F)cc2)C(=O)N(C)CC(=O)N[C@@H](CCc2cc(F)c(C(F)(F)F)c(F)c2)C(=O)N2C[C@H](OCC)C[C@H]2C(=O)NC2(CC(F)(F)C2)C(=O)N(C)[C@@H](C2CCCC2)C(=O)N(C)[C@H](C(=O)N(C)CCC)CC(=O)N1C [PP1737]	2.7	0.11	A (a compound having 10 or more and less than 20 is denoted as A)	A (a compound having 10 or more and less than 20 is denoted as A)
CC[C@H](C)[C@@H]1NC(=O)[C@H](CC)N(C)C(=O)C[C@@H](C(=O)N(C)C)N(C)C(=O)[C@H](C2CCCC2)N(C)C(=O)C2(CCCC2)N(C)C(=O)[C@@H]2C[C@@H](C)CN2C(=O)[C@H](CCc2cc(F)c(C(F)(F)F)c(F)c2)NC(=O)CN(C)C(=O)[C@H](Cc2ccc(C)cc2)N2CC/C=C\C[C@@H](C2=O)N(C)C(=O)CN(C)C1=O [PP1812]	7.8	0.059	A (a compound having 10 or more and less than 20 is denoted as A)	A (a compound having 10 or more and less than 20 is denoted as A)
